Laboratory results published in EP0530994A1, “Quinazoline derivatives as inhibitors of HIV reverse transcriptase” (MERCK & CO. INC., priority 1991, dated 1993).
pIC50: −log10 of the molar value.

Target: T1, recombinant HIV reverse transcriptase (HIV RTR) (Human immunodeficiency virus type 1 group M subtype B, UniProt P03366)
T1 construct: recombinant HIV reverse transcriptase (HIV RTR)
Experiment: Reverse transcriptase assay (incorporation of tritiated deoxyguanosine monophosphate into acid-precipitable cDNA)
Assay type: biochemical
Settings: [³H] dGTP and poly r(C)·oligo d(G)12-18 each at about Km; 37°C for 45 minutes; read-out: IC₅₀ value
Procedure: The assay measures the incorporation of tritiated deoxyguanosine monophosphate by recombinant HIV reverse transcriptase (HIV RTR) (or other RT) into acid-precipitable cDNA at the Km values of dGTP and poly r(C)·oligo d(G)₁₂₋₁₈.
Thirty µL of a reaction mixture containing equal volumes of: 500 mM Tris·HCl (pH 8.2), 300 mM MgCl₂, 1200 mM KCl, 10 mM DTT, 400 µg/mL poly r(c)·oligo d(G) [prepared by dissolving 1.5 mg (25 U) poly r(C)·oligo d(G) in 1.5 ml sterile distilled H₂O and diluting to 400 µg/ml], 0.1 µCi/µl [³H] dGTP, 160 µM dGTP, was added to 10 µl sterile distilled H₂O, 2.5 µl of potential inhibitor and 10 µL of 5 nM purified HIV RTR in tubes. The mixture was incubated at 37°C for 45 minutes.
After incubation is complete, the tubes were cooled in ice for 5 minutes. Ice-cold 13% TCA containing 10 mM NaPPi (200 µl) is added and the mixture incubated on ice for 30 minutes. The precipitated cDNA is removed by filtration using presoaked glass filters [TCA, NaPPi]. […]
The filter discs are then counted in a scintillation counter.
Under these conditions [dGTP] and poly r(C)·oligo d(G)₁₂₋₁₈ each are approximately equal to the appropriate Km value. […] Calculated IC₅₀ values for the tested compounds of this invention vary from about 12 nM to more than 300 µM, with the most preferred compounds having values of between about 30 nM and about 60 µM. […]

SMILES: C#CC1(c2ccccc2)c2cc(Cl)ccc2NC(=O)N1C (single isomer, unassigned; (+)) [(+) optical isomer of compound 4, 6-Chloro-3,4-dihydro-3-methyl-4-phenyl-4-ethynyl-2(1H)-quinazolinone]
- pIC50: ~10.22
